Holding throughout (assay): Yeast growth assay, specificity profiling
What all share (format): cell-based

The target in experiment [1] is T1, EphA2 (Homo sapiens, UniProt P29317).
T1 construct: expressed in transfected cells; host or cells: yeast
Set-up: key: “−” indicates no growth restoration i.e. no activity against the particular kinase; “+”, “++”, and “+++” indicate activity detected by restoration of growth, classified into three categories of potency; “+”, “++”, and “+++” indicate activity detected by restoration of growth, classified into three categories of potency; “+”, “++”, and “+++” indicate activity detected by restoration of growth, classified into three categories of potency. Particulars: 7 concentrations between 0.2 and 100 μM. The gist of the method: (§1)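 Compounds titrated at 7 concentrations spanning 0.2 to 100 μM were tested on yeast whose plasmid-borne RTK, induced by galactose after glucose repression, inhibits growth. Categories −, +, ++, +++ reflect maximal growth recovery and the concentration achieving it.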

Experiment [2] concerns the target T2, FLT3 (Homo sapiens, UniProt P36888).
T2 construct: expressed in transfected cells; host or cells: yeast
T2 sequence (P36888 27-993): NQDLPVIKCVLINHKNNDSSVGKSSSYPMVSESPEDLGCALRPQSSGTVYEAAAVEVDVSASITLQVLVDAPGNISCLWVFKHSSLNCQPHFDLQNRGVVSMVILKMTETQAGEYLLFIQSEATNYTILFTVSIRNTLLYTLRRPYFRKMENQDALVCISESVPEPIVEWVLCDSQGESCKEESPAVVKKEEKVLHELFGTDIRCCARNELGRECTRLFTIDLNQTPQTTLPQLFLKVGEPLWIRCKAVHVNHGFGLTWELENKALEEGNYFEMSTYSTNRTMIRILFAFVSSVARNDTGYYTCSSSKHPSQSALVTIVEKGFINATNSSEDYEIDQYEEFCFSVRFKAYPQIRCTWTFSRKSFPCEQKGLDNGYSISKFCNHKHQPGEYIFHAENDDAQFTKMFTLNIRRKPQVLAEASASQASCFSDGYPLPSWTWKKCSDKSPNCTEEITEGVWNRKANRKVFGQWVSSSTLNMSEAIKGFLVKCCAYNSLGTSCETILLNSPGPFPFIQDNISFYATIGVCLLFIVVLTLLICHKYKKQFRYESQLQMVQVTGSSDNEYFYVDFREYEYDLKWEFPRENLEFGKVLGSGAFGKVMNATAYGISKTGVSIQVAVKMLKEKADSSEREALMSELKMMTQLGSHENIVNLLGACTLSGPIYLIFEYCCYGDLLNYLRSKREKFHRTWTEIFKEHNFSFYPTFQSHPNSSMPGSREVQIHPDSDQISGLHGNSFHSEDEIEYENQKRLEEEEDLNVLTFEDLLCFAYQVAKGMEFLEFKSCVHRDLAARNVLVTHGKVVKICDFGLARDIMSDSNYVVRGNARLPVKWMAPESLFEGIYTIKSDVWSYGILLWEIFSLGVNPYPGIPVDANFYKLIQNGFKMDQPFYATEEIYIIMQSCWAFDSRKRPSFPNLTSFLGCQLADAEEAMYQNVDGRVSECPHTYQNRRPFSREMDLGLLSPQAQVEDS
Also noted: key: “−” indicates no growth restoration i.e. no activity against the particular kinase; “+”, “++”, and “+++” indicate activity detected by restoration of growth, classified into three categories of potency; “+”, “++”, and “+++” indicate activity detected by restoration of growth, classified into three categories of potency; “+”, “++”, and “+++” indicate activity detected by restoration of growth, classified into three categories of potency. Particulars: 7 concentrations between 0.2 and 100 μM. The gist of the method: as §1

The target in experiment [3] is T3, EphB4 (Homo sapiens, UniProt P54760).
T3 construct: expressed in transfected cells; host or cells: yeast
T3 sequence (P54760 16-987): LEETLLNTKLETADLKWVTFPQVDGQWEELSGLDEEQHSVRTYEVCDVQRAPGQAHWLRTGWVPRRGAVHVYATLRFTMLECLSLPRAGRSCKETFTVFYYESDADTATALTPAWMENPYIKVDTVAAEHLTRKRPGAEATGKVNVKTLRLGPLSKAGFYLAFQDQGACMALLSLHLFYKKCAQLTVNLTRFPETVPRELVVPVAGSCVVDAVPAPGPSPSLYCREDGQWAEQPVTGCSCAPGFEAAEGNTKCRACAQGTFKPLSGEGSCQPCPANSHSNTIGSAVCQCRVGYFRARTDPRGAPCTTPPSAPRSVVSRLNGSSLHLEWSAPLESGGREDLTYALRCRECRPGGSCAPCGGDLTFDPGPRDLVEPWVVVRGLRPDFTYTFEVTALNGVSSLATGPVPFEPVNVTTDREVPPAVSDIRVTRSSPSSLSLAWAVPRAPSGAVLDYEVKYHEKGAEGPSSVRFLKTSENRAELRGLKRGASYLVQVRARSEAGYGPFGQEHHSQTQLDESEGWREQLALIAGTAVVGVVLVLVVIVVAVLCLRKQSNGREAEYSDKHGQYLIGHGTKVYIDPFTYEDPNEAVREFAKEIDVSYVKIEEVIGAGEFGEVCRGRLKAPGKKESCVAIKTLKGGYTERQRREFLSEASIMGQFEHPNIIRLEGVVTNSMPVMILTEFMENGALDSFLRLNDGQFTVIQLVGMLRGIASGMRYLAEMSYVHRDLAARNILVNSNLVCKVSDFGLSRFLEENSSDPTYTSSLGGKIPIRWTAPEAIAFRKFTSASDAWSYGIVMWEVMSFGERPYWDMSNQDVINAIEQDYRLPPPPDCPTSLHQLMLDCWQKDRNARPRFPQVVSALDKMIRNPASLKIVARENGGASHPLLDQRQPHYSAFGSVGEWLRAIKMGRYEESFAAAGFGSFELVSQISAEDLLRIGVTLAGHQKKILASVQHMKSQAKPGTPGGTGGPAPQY
Set-up: key: “−” indicates no growth restoration i.e. no activity against the particular kinase; “+”, “++”, and “+++” indicate activity detected by restoration of growth, classified into three categories of potency; “+”, “++”, and “+++” indicate activity detected by restoration of growth, classified into three categories of potency; “+”, “++”, and “+++” indicate activity detected by restoration of growth, classified into three categories of potency. Particulars: 7 concentrations between 0.2 and 100 μM. The procedure, abridged: as §1

Experiment [4] has as its target T4, EGFR (L858R) (Homo sapiens, UniProt P00533, L858R).
T4 construct: expressed in transfected cells; host or cells: yeast
Set-up: key: (+) in a different yeast background. Particulars: in a different yeast background. The protocol: Specificity Profiling: Yeast Growth Assay
The yeast growth assay was performed as described in “Method for the identification and/or validation of receptor tyrosine kinase inhibitors” PCT/CH03/00694 (2004/10/24), section “Modes for Carrying out the Invention, Experiment 1 and Experiment 2.
Briefly, yeast cells carrying plasmids with the RTK of interest were grown in glucose containing medium (repressing expression). The cultures were diluted into galactose containing medium, which induces the expression of the kinase. Expression of the kinase inhibits growth of the yeast cells, which allows for positive selection of kinase inhibitors restoring growth of cells. Compounds were titrated at 7 concentrations between 0.2 and 100 μM.
Specificity profiling of compounds, using the yeast growth assay method described above. “−” indicates no growth restoration i.e. no activity against the particular kinase, “+”, “++”, and “+++” indicate activity detected by restoration of growth, classified into three categories of potency according to the maximal level of growth restoration reached and the concentration at which the maximal growth restoration is reached.

Molecules are shown by their SMILES.
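For EGFR (L858R) growth restoration in this document: Parenthesized + marks a result obtained in a different yeast background.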

T1 sequence (P29317 24-976): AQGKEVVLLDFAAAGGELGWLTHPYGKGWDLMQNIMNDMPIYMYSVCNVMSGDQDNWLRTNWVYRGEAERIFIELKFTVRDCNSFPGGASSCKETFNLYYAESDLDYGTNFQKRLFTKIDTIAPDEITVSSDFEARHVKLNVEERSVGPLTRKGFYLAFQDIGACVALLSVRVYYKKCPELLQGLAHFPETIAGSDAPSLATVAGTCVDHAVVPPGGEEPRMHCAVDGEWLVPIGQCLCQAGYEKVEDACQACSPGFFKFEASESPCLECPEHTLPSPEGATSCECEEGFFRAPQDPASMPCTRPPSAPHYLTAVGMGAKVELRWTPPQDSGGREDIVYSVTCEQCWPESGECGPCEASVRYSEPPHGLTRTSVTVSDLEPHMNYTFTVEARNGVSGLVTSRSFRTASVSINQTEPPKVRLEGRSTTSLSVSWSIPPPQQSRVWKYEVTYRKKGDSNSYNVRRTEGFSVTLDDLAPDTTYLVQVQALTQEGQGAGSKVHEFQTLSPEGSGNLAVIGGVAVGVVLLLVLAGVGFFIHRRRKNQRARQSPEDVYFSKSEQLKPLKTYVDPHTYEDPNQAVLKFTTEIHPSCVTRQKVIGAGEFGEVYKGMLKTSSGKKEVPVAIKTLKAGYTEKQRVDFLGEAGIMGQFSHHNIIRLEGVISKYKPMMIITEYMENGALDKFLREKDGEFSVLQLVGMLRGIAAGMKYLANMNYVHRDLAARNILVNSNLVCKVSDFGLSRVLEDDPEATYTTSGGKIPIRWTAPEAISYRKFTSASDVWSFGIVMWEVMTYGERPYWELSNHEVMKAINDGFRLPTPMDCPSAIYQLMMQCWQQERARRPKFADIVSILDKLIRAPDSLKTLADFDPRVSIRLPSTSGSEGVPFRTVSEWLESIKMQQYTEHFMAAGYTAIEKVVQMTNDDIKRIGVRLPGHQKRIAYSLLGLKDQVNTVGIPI

For `Cc1nccn2c(Nc3cccc(Cl)c3)c(-c3ccccc3)nc12` [compound 3, (3-Chloro-phenyl)-(8-methyl-2-phenyl-imidazo[1,2-a]pyrazin-3-yl)-amine], the EphA2 growth restoration result in experiment [1] is “−”. Further, the FLT3 growth restoration result in experiment [2] is reported as “−”. Moreover, in experiment [3], the EphB4 growth restoration result was “++”.
As for `COc1cccc(-c2nc3cnccn3c2Nc2cccc(Cl)c2)c1` [compound 7, (3-Chloro-phenyl)-[2-(3-methoxy-phenyl)-imidazo[1,2-a]pyrazin-3-yl]-amine], in experiment [1], the EphA2 growth restoration entry is recorded as “−”. Besides, the FLT3 growth restoration entry in experiment [2] is on record as “−”. Besides, the EphB4 growth restoration result in experiment [3] is “+”.
`CC(=O)Nc1ccc(-c2nc3cnccn3c2Nc2cccc(Cl)c2)cc1` [compound 8, N-{4-[3-(3-Chloro-phenylamino)-imidazo[1,2-a]pyrazin-2-yl]-phenyl}-acetamide]: the “EGFR (L858R) growth restoration” value in experiment [4] is “(+)”. In addition, the EphA2 growth restoration result in experiment [1] is given as “+”. Further, in experiment [3], the EphB4 growth restoration entry is “++”.
Taken in the same sequence, the figures for `Nc1ccc(-c2nc3cnccn3c2Nc2cccc(Cl)c2)cc1` [compound 10, [2-(4-Amino-phenyl)-imidazo[1,2-a]pyrazin-3-yl]-(3-chloro-phenyl)-amine] were “(+)”, “++” and “+++”.
The corresponding values for `CC(C)c1nc2cnccn2c1Nc1cccc(Cl)c1` [compound 12, (3-Chloro-phenyl)-(2-isopropyl-imidazo[1,2-a]pyrazin-3-yl)-amine] are “(+)”, “+” and “+”.
With `Brc1cccc(Nc2c(-c3ccccc3)nc3cnccn23)c1` [compound 14, (3-Bromo-phenyl)-(2-phenyl-imidazo[1,2-a]pyrazin-3-yl)-amine], in experiment [1], the EphA2 growth restoration entry is given as “−”. Further, in experiment [2], the FLT3 growth restoration result is reported as “−”. The EphB4 growth restoration result in experiment [3] is “−”.
For `Clc1ccc(Nc2c(-c3ccccc3)nc3cnccn23)cc1` [compound 16, (4-Chloro-phenyl)-(2-phenyl-imidazo[1,2-a]pyrazin-3-yl)-amine], the EphA2 growth restoration result in experiment [1] is on record as “−”. Besides, the FLT3 growth restoration result in experiment [2] is recorded as “−”. For the same molecule, the EphB4 growth restoration entry in experiment [3] is “+”.
For `CNc1nccn2c(Nc3cccc(Cl)c3)c(-c3ccccc3)nc12` [compound 20, N′3-(3-Chloro-phenyl)-N′8-methyl-2-phenyl-imidazo[1,2-a]pyrazine-3,8-diamine], the EphA2 growth restoration result in experiment [1] is “−”. Further, the EphB4 growth restoration entry in experiment [3] is recorded as “−”.
Turning to `c1ccc(Nc2c(-c3ccccc3)nc3cnccn23)cc1` [compound 23, Phenyl-(2-phenyl-imidazo[1,2-a]pyrazin-3-yl)-amine], the EphA2 growth restoration entry in experiment [1] is reported as “+”. In addition, in experiment [2], the FLT3 growth restoration result is on record as “−”. Besides, the EphB4 growth restoration result in experiment [3] is given as “++”.
Turning to `Fc1cccc(Nc2c(-c3ccccc3)nc3cnccn23)c1` [compound 26, (3-Fluoro-phenyl)-(2-phenyl-imidazo[1,2-a]pyrazin-3-yl)-amine], the “EGFR (L858R) growth restoration” value in experiment [4] is listed as “(+)”. In addition, in experiment [1], the EphA2 growth restoration result was “−”. The EphB4 growth restoration result in experiment [3] was “++”.
In the case of `Cc1cccc(Nc2c(-c3ccccc3)nc3cnccn23)c1` [compound 34, (2-Phenyl-imidazo[1,2-a]pyrazin-3-yl)-m-tolyl-amine], the EphA2 growth restoration result in experiment [1] is listed as “−”. In experiment [2], the FLT3 growth restoration entry is “−”. The EphB4 growth restoration entry in experiment [3] is listed as “+ −”.
As to `Clc1cccc(Nc2c(-c3ccccc3)nc3cnccn23)c1` [compound 35, (3-Chloro-phenyl)-(2-phenyl-imidazo[1,2-a]pyrazin-3-yl)-amine], the EphA2 growth restoration entry in experiment [1] was “−”. The FLT3 growth restoration entry in experiment [2] is “−”. The EphB4 growth restoration entry in experiment [3] is “+”.
`Cc1nccn2c(Nc3ccccc3)c(-c3ccccc3)nc12` [compound 39, (8-Methyl-2-phenyl-imidazo[1,2-a]pyrazin-3-yl)-phenyl-amine]: in experiment [1], the EphA2 growth restoration entry is reported as “+”. The FLT3 growth restoration entry in experiment [2] is “−”. For the same molecule, the EphB4 growth restoration result in experiment [3] is listed as “+++”.
The corresponding values for `Cc1cccc(Nc2c(-c3ccccc3)nc3c(C)nccn23)c1` [compound 43, (8-Methyl-2-phenyl-imidazo[1,2-a]pyrazin-3-yl)-m-tolyl-amine] are “−”, “−” and “+++”.
For the molecule `Cc1nccn2c(Nc3cccc(F)c3)c(-c3ccccc3)nc12` [compound 44, (3-Fluoro-phenyl)-(8-methyl-2-phenyl-imidazo[1,2-a]pyrazin-3-yl)-amine], the EphA2 growth restoration entry in experiment [1] was “−”. For the same molecule, in experiment [2], the FLT3 growth restoration result is “−”. The EphB4 growth restoration result in experiment [3] is listed as “+++”.
Take `Cc1nccn2c(Nc3ccc(F)c(F)c3)c(-c3ccccc3)nc12` [compound 45, (3,4-Difluoro-phenyl)-(8-methyl-2-phenyl-imidazo[1,2-a]pyrazin-3-yl)-amine]: the EphA2 growth restoration entry in experiment [1] is reported as “−”. Also, the FLT3 growth restoration result in experiment [2] is recorded as “−”. Further, the EphB4 growth restoration entry in experiment [3] is listed as “+++”.

Source of the values: patent US20070149535A1, “Protein kinase inhibitors” (ONCALIS AG, priority 2004, published 2007).
